Several values for one entry are separate records, joined by “and”; a condition that tells them apart may be missing. Equal values may be shown once. Read-outs that look alike come from different tables or passages of the source.
Columns and labels:
Test in all cases: Synergy test, high resolution MIC microtiter plate assay
Assay type in all cases: cell-based
[1] = tested on: Candida albicans (C. albicans—ATCC 10231); details: for MIC of component acting alone (end point): C. albicans, Ag-polymer on active silver ion basis; for Ca (Component A in combination): Hydrogen Peroxide combined with Ag-polymer formulation; for MIC: Candida albicans, read-out: MIC of component acting alone (end point)
Text: (§1) One measure of synergism is the industrially accepted method described by Kull, F. C.; Eisman, P. C.; Sylwestrowicz, H. D. and Mayer, R. L., in Applied Microbiology 9:538-541 (1961), using the ratio determined by the formula: Ca/CA+Cb/CB=Synergy Index (“SI”) wherein:
(§2) CA=concentration of compound A (first component) in ppm, acting alone, which produced an end point (MIC of Compound A).
(§3) Ca=concentration of compound A in ppm, in the mixture, which produced an end point.
(§4) CB=concentration of compound B (second component) in ppm, acting alone, which produced an end point (MIC of Compound B).
(§5) Cb=concentration of compound B in ppm, in the mixture, which produced an end point.
(§6) When the sum of Ca/CA and Cb/CB is greater than one, antagonism is indicated. […] The lower the SI, the greater the synergy shown by that particular mixture. The minimum inhibitory concentration (MIC) of an antimicrobial compound is the lowest concentration tested under a specific set of conditions that prevents the growth of added microorganisms.
(§7) Synergy tests were conducted using standard microtiter plate assays with media designed for optimal growth of the test microorganism. Soybean Casein Digest Broth (Tryptic Soy Broth, TSB medium) or minimal salt medium supplemented with 0.2% glucose and 0.1% yeast extract (M9GY medium) was used for testing bacteria; Potato Dextrose Broth (PDB medium) was used for testing yeast and mold. In this method, a wide range of combinations of microbicides was tested by conducting high resolution MIC assays in the presence of various concentrations of the biocides. High resolution MICs were determined by adding varying amounts of microbicide to one column of a microtitre plate and doing subsequent ten-fold dilutions using an automated liquid handling system.
(§8) […]. The bacteria were used at a concentration of about 1-6×10^6 bacteria per mL and the yeast and mold at 1-5×10^5 fungi per mL. These microorganisms are representative of natural contaminants in many consumer and industrial applications. […] (yeast and mold) or 30° C. (bacteria).
(§9) The end point values in the following examples for the silver-polymer complex are reported on an active silver ion basis.

[2] = tested on: Aspergillus niger (A. niger—ATCC 16404); details: for MIC of component acting alone (end point): A. niger, Ag-polymer on active silver ion basis; for MIC: Aspergillus niger, read-out: MIC of component acting alone (end point)
Text: as §1, §2, §3, §4, §5, §6, §7
(§10) The bacteria were used at a concentration of about 1-6×10^6 bacteria per mL and the yeast and mold at 1-5×10^5 fungi per mL. These microorganisms are representative of natural contaminants in many consumer and industrial applications. […] (yeast and mold) or 30° C. (bacteria).

[3] = tested on: Pseudomonas aeruginosa (P. aeruginosa—ATCC #15442); details: for MIC of component acting alone (end point): P. aeruginosa, Ag-polymer on active silver ion basis
Text: as §1, §2, §3, §4, §5, §6, §7, §10

[4] = tested on: Staphylococcus aureus (S. aureus—ATCC #6538); details: for MIC of component acting alone (end point): S. aureus, Ag-polymer on active silver ion basis; for MIC: Staphylococcus aureus, read-out: MIC of component acting alone (end point)
Text: as §1, §2, §3, §4, §5, §6, §7, §10

[5] = tested on: Esherichia coli (E. coli—ATCC #8739); details: Ag-polymer on active silver ion basis
Text: as §1, §2, §3, §4, §5, §6, §7, §8, §9

[6] = Table 11, Glutaraldehyde alone, contact time 24 hour
[7] = Table 11, Glutaraldehyde alone, contact time 48 hour
[8] = Table 10, Sodium hypochlorite alone, as Free Cl2, contact time 24 hour
[9] = Table 10, Sodium hypochlorite alone, as Free Cl2, contact time 48 hour
[10] = Sodium hypochlorite (as Free Cl2) combined with Ag-polymer formulation, contact time 48 hour
[11] = 5-Chloro-2-(2,4-dichlorophenoxy)phenol combined with Ag-polymer formulation, contact time 48 hour
[12] = Table 12, 5-Chloro-2-(2,4-dichlorophenoxy)phenol alone, contact time 24 hour
[13] = Table 12, 5-Chloro-2-(2,4-dichlorophenoxy)phenol alone, contact time 48 hour
[14] = Table 9, Hydrogen Peroxide alone, contact time 24 hour
[15] = Table 9, Hydrogen Peroxide alone, contact time 48 hour
[16] = Hydrogen Peroxide combined with Ag-polymer formulation, contact time 24 hour
[17] = Table 13, 3-Iodo-2-propynyl butylcarbamate alone, contact time 24 hour
[18] = Table 13, 3-Iodo-2-propynyl butylcarbamate alone, contact time 48 hour

O=c1[nH]sc2ccccc12 [Benzisothiazolin-3-one, reference compound]
MIC of component acting alone (end point) ([1]; contact time 24 hour): 30 ppm | MIC of component acting alone (end point) ([1]; contact time 48 hour): 30 ppm | MIC of component acting alone (end point) ([2]; contact time 3 days): 43 ppm | MIC of component acting alone (end point) ([2]; contact time 7 days): 53 ppm | MIC of component acting alone (end point) ([3]; contact time 24 hour): 4 ppm | MIC of component acting alone (end point) ([3]; contact time 48 hour): 7 ppm | MIC of component acting alone (end point) ([4]; contact time 24 hour): 20 ppm | MIC of component acting alone (end point) ([4]; contact time 48 hour): 20 ppm

O=CCCCC=O [Glutaraldehyde]
Ca (Component A alone) [1, 6]: 88 | Ca (Component A alone) [1, 7]: 88 | Ca (Component A in combination) ([2]; Glutaraldehyde combined with Ag-polymer formulation, contact time 3 days): 425 | Ca (Component A in combination) ([2]; Glutaraldehyde combined with Ag-polymer formulation, contact time 7 days): 525 | Ca (Component A alone) ([2]; Table 11, Glutaraldehyde alone, contact time 3 days): 525 | Ca (Component A alone) ([2]; Table 11, Glutaraldehyde alone, contact time 7 days): 650 | Ca (Component A in combination) ([3]; Glutaraldehyde combined with Ag-polymer formulation, contact time 24 hour): 13 | Ca (Component A in combination) ([3]; Glutaraldehyde combined with Ag-polymer formulation, contact time 48 hour): 16 | Ca (Component A alone) [3, 6]: 16 | Ca (Component A alone) [3, 7]: 20 | Ca (Component A alone) [4, 6]: 13 | Ca (Component A alone) [4, 7]: 20

OCl [Sodium hypochlorite]
Ca (Component A alone) [1, 8]: 0.9 | Ca (Component A alone) [1, 9]: 2 | Ca (Component A alone) ([2]; Table 10, Sodium hypochlorite alone, as Free Cl2, contact time 3 days): 26 | Ca (Component A alone) ([2]; Table 10, Sodium hypochlorite alone, as Free Cl2, contact time 7 days): 35 | Ca (Component A in combination) ([3]; Sodium hypochlorite (as Free Cl2) combined with Ag-polymer formulation, contact time 24 hour): 0.5 | Ca (Component A in combination) [3, 10]: 0.7 | Ca (Component A alone) [3, 8]: 0.7 | Ca (Component A alone) [3, 9]: 0.9 | Ca (Component A in combination) [4, 10]: 0.5 | Ca (Component A alone) [4, 8]: 0.4 | Ca (Component A alone) [4, 9]: 0.7

Oc1cc(Cl)ccc1Oc1ccc(Cl)cc1Cl [5-Chloro-2-(2,4-dichlorophenoxy)phenol]
Ca (Component A in combination) ([2]; 5-Chloro-2-(2,4-dichlorophenoxy)phenol combined with Ag-polymer formulation, contact time 3 days): 7 | Ca (Component A alone) ([2]; Table 12, 5-Chloro-2-(2,4-dichlorophenoxy)phenol alone, contact time 3 days): 9 | Ca (Component A alone) ([2]; Table 12, 5-Chloro-2-(2,4-dichlorophenoxy)phenol alone, contact time 7 days): 30 | Ca (Component A in combination) ([3]; 5-Chloro-2-(2,4-dichlorophenoxy)phenol combined with Ag-polymer formulation, contact time 24 hour): 20 | Ca (Component A in combination) [3, 11]: 30 and 20 | Ca (Component A alone) [3, 12]: 30 | Ca (Component A alone) [3, 13]: 43 | Ca (Component A in combination) [4, 11]: 9 and 7 | Ca (Component A alone) [4, 12]: 9 | Ca (Component A alone) [4, 13]: 11

OO [Hydrogen Peroxide]
Ca (Component A in combination) ([1]; contact time 24 hour): 105 and 85 | Ca (Component A in combination) ([1]; contact time 48 hour): 85 | Ca (Component A alone) [1, 14]: 130 | Ca (Component A alone) [1, 15]: 130 | Ca (Component A in combination) ([2]; Hydrogen Peroxide combined with Ag-polymer formulation, contact time 7 days): 1300 and 1050 | Ca (Component A alone) ([2]; Table 9, Hydrogen Peroxide alone, contact time 3 days): 1300 | Ca (Component A alone) ([2]; Table 9, Hydrogen Peroxide alone, contact time 7 days): 1750 | Ca (Component A in combination) [3, 16]: 255 | Ca (Component A in combination) ([3]; Hydrogen Peroxide combined with Ag-polymer formulation, contact time 48 hour): 390 and 315 and 255 | Ca (Component A alone) [3, 14]: 315 | Ca (Component A alone) [3, 15]: 525 | Ca (Component A in combination) [4, 16]: 53 and 39 | Ca (Component A alone) [4, 14]: 66 | Ca (Component A alone) [4, 15]: 180

Cn1sccc1=O [MIT, 2-methyl-4-isothiazolin-3-one, reference compound]
MIC ([1]; ATCC10231, 24 h): 288 µg/mL | MIC ([1]; ATCC10231, 48 h): 403 µg/mL | MIC ([2]; ATCC16404, 72 h): 493 µg/mL | MIC ([2]; ATCC16404, 168 h): 603 µg/mL | MIC ([3]; Pseudomonas aeruginosa, ATCC15442, 48 h, read-out: MIC of component acting alone (end point)): 24.7 µg/mL | MIC ([4]; ATCC6538, 24 h): 34.5 µg/mL | MIC ([4]; ATCC6538, 48 h): 34.5 µg/mL

C9-C15 alkyltolylmethyltrimethylammonium chloride [reference compound]
MIC of component acting alone (end point) ([1]; contact time 24 hour): 98 ppm | MIC of component acting alone (end point) ([5]; contact time 24 hour): 6 ppm | MIC of component acting alone (end point) ([5]; contact time 48 hour): 6 ppm | MIC of component acting alone (end point) ([2]; contact time 7 days): 493 ppm | MIC of component acting alone (end point) ([3]; contact time 24 hour): 19.4 ppm | MIC of component acting alone (end point) ([3]; contact time 48 hour): 19.4 ppm | MIC of component acting alone (end point) ([4]; contact time 24 hour): 69 ppm

CC(C)(C)CC(C)(C)c1ccc(OCCOCC[N+](C)(C)Cc2ccccc2)cc1.[Cl-] [diisobutylphenoxyethoxyethyl dimethylbenzylammonium chloride, reference compound]
MIC of component acting alone (end point) ([1]; contact time 48 hour): 28.8 ppm | MIC of component acting alone (end point) ([5]; contact time 24 hour): 19.4 ppm | MIC of component acting alone (end point) ([2]; contact time 7 days): 40.3 ppm | MIC of component acting alone (end point) ([4]; contact time 24 hour): 28.8 ppm | MIC of component acting alone (end point) ([4]; contact time 48 hour): 40.3 ppm

CCCCNC(=O)OCC#CI [3-Iodo-2-propynyl butylcarbamate]
Ca (Component A alone) ([2]; Table 13, 3-Iodo-2-propynyl butylcarbamate alone, contact time 3 days): 0.4 | Ca (Component A alone) ([2]; Table 13, 3-Iodo-2-propynyl butylcarbamate alone, contact time 7 days): 0.8 | Ca (Component A in combination) ([3]; 3-Iodo-2-propynyl butylcarbamate combined with Ag-polymer formulation, contact time 24 hour): 850 | Ca (Component A in combination) ([3]; 3-Iodo-2-propynyl butylcarbamate combined with Ag-polymer formulation, contact time 48 hour): 1050 | Ca (Component A alone) [3, 17]: 1050 | Ca (Component A alone) [3, 18]: 1300 | Ca (Component A alone) [4, 17]: 14 | Ca (Component A alone) [4, 18]: 14

Source: patent US9034352B2, “Microbicide combinations containing silver” (Rohm and Haas Company, priority 2006, dated 2015)
